Measured values: patent publication US12410124B2 (priority 2019, dated 2025)

Tests used:
Type in all cases: in vivo
hippocampus CD11b = test: Number of hippocampus microglial cells with CD11b positive expression in MPTP Parkinson's disease model mouse (immunohistochemistry); settings: hippocampus, MPTP Parkinson's disease model mouse, immunohistochemistry
Protocol: (§1) Neurotoxins can be used to establish PD animal models. Currently, 1-methyl-4-phenyl-1,2,3,6-tetrahydropyridine (MPTP) is the sole synthetic toxin which is recognized to induce PD symptoms in human and non-human primates and in mice. Using MPTP subacute modeling method, C57BL/6J male mice were intraperitoneally injected with MPTP 30 mg/kg, once a day for 5 consecutive days. The experiment animals were divided into blank control group, MPTP model group, and compound treatment group. For the […] compound treatment group, the compound was administrated by gavage for 21 consecutive days after the completion of modeling; for the MPTP model group, the normal saline was administrated by gavage for 21 consecutive days after the completion of modeling; and for the blank control group, the normal saline was first intraperitoneally injected for 5 days, and then administrated by gavage for 21 days.
(§2) Neuron-glial cell network homeostasis disorder is an important factor for the selective and progressive death of substantia nigra dopaminergic neurons in PD. In the neurotoxic effect of MPTP, the excessive activations of microglial cells and astrocytes produce a variety of inflammatory cytokines and reactive oxygen species (ROS). These inflammatory factors and ROS amplify their respective toxicities and mediate malignant feedback loop, causing a cascade inflammation response and aggravating the pathological process of PD. CD11b and GFAP are the marker proteins for activations of microglial cells and astrocytes, respectively. Therefore, the effect of the target compounds on the activations of the microglial cells and astrocytes in the substantia nigra, hippocampus, and midbrain areas of MPTP-induced PD mice can be investigated, to explore the mechanism of the anti-PD effect of the target compounds by inhibiting the neuroinflammation.
(§3) Half of experiment mice in each group were taken to separate the midbrain after perfusion and fixation. The tissue was trimmed, and the hippocampus area was taken to prepare paraffin sections. The CD11b immunohistochemical staining was performed for the statistics of the change in the number of microglial cells with CD11b positive expression. The experiment included blank control group, MPTP model group, positive control group (caffeic acid phenethyl ester, CAPE), prototype control group (styryl sulfone compounds 3B, 3C, 3D, and 3G, whose structures are shown as above), and target compound group.

midbrain TH = test: Midbrain TH expression in MPTP Parkinson's disease model mouse (western-blotting); settings: midbrain total protein, GAPDH internal reference, gavage 21 days after MPTP modeling
Protocol: as §1
(§4) The main cause of PD lies in the pathological changes in the substantia nigra-striatum projection system of the brain and the progressive degeneration and loss of dopaminergic neurons. Tyrosine hydroxylase (TH) is the first enzyme in the biosynthesis of catecholamine neurotransmitters, as well as the first rate-limiting enzyme in the dopamine synthesis. It plays an important role in the synthesis and metabolism of the neurotransmitter DA. The TH in PD animal models and patients has a wide range of abnormal changes, from the gene expression to the enzyme protein content and enzyme activity. The detection of the TH expression in the midbrain and substantia nigra of PD model mice can be used to evaluate the neuroprotective activity of the compound.
Half of experiment mice in each group were taken to extract the total midbrain protein, and the change in the midbrain TH was determined by western-blotting using GAPDH as the internal reference. The experiment included blank control group, MPTP model group, positive control group (caffeic acid phenethyl ester, CAPE), prototype control group (styryl sulfone compounds 3B, 3C, 3D, and 3G, whose structures are shown as above), and target compound group.

substantia nigra pp38 = test: Substantia nigra pp38 protein expression in MPTP Parkinson's disease model mouse (immunofluorescence); settings: percentage of mean intensity of blank control group, gavage 21 days after MPTP modeling
Protocol: as §1
The p38 mitogen-activated protein kinase (p38 MAPK) is expressed in both neurons and glial cells, and is the intersection point of neuron-glial cell network information regulations. The activation of p38 signaling pathway is an important initiator of neuronal degeneration, which continuously induces the apoptosis of dopaminergic neurons in multiple ways. It has become a research hotspot for the treatment of PD. Studies have shown that the protective mechanism of CAPE against the death of primary cultured cerebellar granule neurons induced by glutamate lies in inhibiting the activation of p38 phosphorylation and in turn inhibiting the activation of the caspase 3 apoptotic pathway to prevent neuronal apoptosis. Therefore, the MPTP-induced PD mouse model can be used to investigate the inhibitory effect of the target compounds on the activation of p38 phosphorylation on the overall animal level.
as §3, with “substantia nigra-striatum” for “hippocampus”, “double immunofluorescence” for “CD11b immunohistochemical”, “staining for TH and phosphorylated p38” for “staining”, “performed to observe the coexpression of TH and phosphorylated p38,” for “performed”, “phosphorylated p38 protein” for “number of microglial cells with CD11b positive”

substantia nigra CD11b = test: Number of substantia nigra microglial cells with CD11b positive expression in MPTP Parkinson's disease model mouse (immunohistochemistry); settings: substantia nigra, MPTP Parkinson's disease model mouse, immunohistochemistry
Protocol: as §1, §2
as §3, with “substantia nigra” for “hippocampus”

hippocampus GFAP = test: Number of hippocampus astrocytes with GFAP positive expression in MPTP Parkinson's disease model mouse (immunohistochemistry); settings: hippocampus, MPTP Parkinson's disease model mouse, immunohistochemistry
Protocol: as §1, §2
as §3, with “GFAP” for “CD11b”, “astrocytes” for “microglial cells”

midbrain CD11b = test: Midbrain CD11b protein expression in MPTP Parkinson's disease model mouse (western-blotting); settings: midbrain, MPTP Parkinson's disease model mouse, western-blotting
Protocol: as §1, §2
[…] The experiment included blank control group, MPTP model group, positive control group (caffeic acid phenethyl ester, CAPE), prototype control group (styryl sulfone compounds 3B, 3C, 3D), and 3G, whose structures are shown as above), and target compound group.

substantia nigra TH = test: Substantia nigra TH expression in MPTP Parkinson's disease model mouse (immunofluorescence); settings: percentage of mean intensity of blank control group, gavage 21 days after MPTP modeling
Protocol: as §1, §4
as §3, with “substantia nigra-striatum” for “hippocampus”, “TH immunofluorescence” for “CD11b immunohistochemical”, “performed” for “performed for the statistics of the change”, “brain sections” for “number”, “mice in each group. […]” for “microglial cells with CD11b positive expression.”

Row | Structure (SMILES) | Positive cell number (microglial cells with CD11b positive expression) (hippocampus CD11b) | Expression (TH/GAPDH) (midbrain TH) | Expression (Immunofluorescence intensity %) (substantia nigra pp38) [%] | Positive cell number (microglial cells with CD11b positive expression) (substantia nigra CD11b) | Positive cell number (astrocytes with GFAP positive expression) (hippocampus GFAP) | Expression (CD11b/GAPDH) (midbrain CD11b) | Expression (Immunofluorescence intensity %) (substantia nigra TH) [%]
1 | CCN(C)C(=O)Oc1ccc(/C=C/S(=O)(=O)CC(c2ccc(-c3ccc(OC)c(OC)c3)cc2)[N+](=O)[O-])cc1OC(=O)N(C)CC (stereo not drawn) [Compound M1-1, (E)-4-{2-[2-(3′,4′-dimethoxy-[1,1′-biphenyl]-4-yl)-2-nitroethylsulfonyl]ethenyl}-1,2-phenylenebis(N-ethyl-N-methylcarbamate)] | 5 ± 1 | 1.35 ± 0.04 | 98.35 ± 6.93 | 20 ± 3 | 51 ± 5 | 0.46 ± 0.04 | 101.36 ± 5.21
2 | COc1ccc(CC(=O)Oc2ccc(/C(C)=C/S(=O)(=O)/C=C/c3ccc(OC(=O)N(C)C)c(O[Si](C)(C)CCl)c3)cc2)cc1 [Compound P1-7, 4-{(E)-1-[(E)-3-(chloromethyldimethylsiloxy)-4-(N,N-dimethylcarbamoyloxy)styrylsulfonyl]prop-1-en-2-yl}phenyl-2-(4-methoxyphenyl) acetate] | 8 ± 2 | 0.88 ± 0.06 | 77.29 ± 13.06 | 15 ± 2 | 49 ± 4 | 0.39 ± 0.03 | 88.07 ± 5.03
3 | COCCN(C)C(=O)Oc1cc(/C=C/S(=O)(=O)CCc2cccc(-c3ccc(C)o3)c2)ccc1OC(C)=O [Compound J1-4, (E)-2-[N-(2-methoxyethyl)-N-methylcarbamoyloxy]-4-{2-[3-(5-methylfur-2-yl)phenylethylsulfonyl]ethenyl}phenyl acetate] | 10 ± 2 | 0.89 ± 0.04 | 100.62 ± 13.35 | 24 ± 5 | 79 ± 2 | 0.75 ± 0.06 | 88.65 ± 5.41
4 | CC(C)(C)c1ccc(CS(=O)(=O)/C=C/c2ccc(O)c(O)c2)cc1 [Compound 3G, (E)-4-{2-[(4-t-butylphenyl)mesyl]ethenyl}benzene-1,2-diol, reference compound] | 18 ± 3 | 0.45 ± 0.05 | 118.25 ± 10.60 | 52 ± 5 | 130 ± 6 | 0.67 ± 0.12 | 76.08 ± 7.08
5 | CN(C)c1ccc(CC(=O)Oc2cc(/C=C/S(=O)(=O)C(Br)c3ccc(Cc4ccc(N(C)C)cc4)cc3)ccc2OC(=O)N2CCCC2C(F)(F)F)cc1 (stereo not drawn) [Compound M1-5] | 11 ± 1 | 0.83 ± 0.06 | 87.45 ± 11.05 | 28 ± 3 | 67 ± 6 | 0.83 ± 0.07 | 87.24 ± 2.97
6 | C=CCOc1ccc(C/C=C/S(=O)(=O)/C=C/c2ccc(OC(C)=O)c(OC(=O)N(CC=C)CC=C)c2)cc1 [Compound K1-4, 4-{(E)-2-[(E)-3-(4-allyloxyphenyl)prop-1-en-1-yl]sulfonylethenyl}-2-(N,N-diallylcarbamoyloxy)phenyl acetate] | 13 ± 2 | 0.74 ± 0.08 | 100.80 ± 5.48 | 30 ± 4 | 71 ± 4 | 1.09 ± 0.10 | 74.20 ± 6.58
